Assay results reported in ChEMBL document CHEMBL1155294, “Synthesis and evaluation of 6-methyl-3-phenylcoumarins as potent and selective MAO-B inhibitors” (Bioorg Med Chem Lett, 2009).

Assays:
[1] = molecular target: T1, Amine oxidase [flavin-containing] A (Homo sapiens, UniProt P21397); assay: Inhibition of human recombinant MAOA expressed in BTI cells at 100 uM; format: cell-based
T1 sequence (P21397 whole entry): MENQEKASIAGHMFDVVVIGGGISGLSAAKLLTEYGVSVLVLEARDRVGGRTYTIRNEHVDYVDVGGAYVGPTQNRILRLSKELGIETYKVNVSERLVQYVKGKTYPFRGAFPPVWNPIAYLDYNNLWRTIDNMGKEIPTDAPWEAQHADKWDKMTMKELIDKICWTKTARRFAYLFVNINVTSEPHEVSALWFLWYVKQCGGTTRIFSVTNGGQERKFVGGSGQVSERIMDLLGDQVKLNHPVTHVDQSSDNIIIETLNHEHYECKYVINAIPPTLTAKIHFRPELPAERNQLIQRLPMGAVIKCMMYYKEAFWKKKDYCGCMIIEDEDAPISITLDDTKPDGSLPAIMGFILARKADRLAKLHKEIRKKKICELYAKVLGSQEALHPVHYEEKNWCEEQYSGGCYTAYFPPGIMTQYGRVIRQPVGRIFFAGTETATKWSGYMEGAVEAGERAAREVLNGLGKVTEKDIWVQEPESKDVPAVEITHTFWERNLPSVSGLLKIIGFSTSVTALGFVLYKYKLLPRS

[2] = molecular target: T2, Amine oxidase [flavin-containing] B (Homo sapiens, UniProt P27338); assay: Inhibition of human recombinant MAOB expressed in BTI cells at 100 uM; format: cell-based
T2 sequence (P27338 whole entry): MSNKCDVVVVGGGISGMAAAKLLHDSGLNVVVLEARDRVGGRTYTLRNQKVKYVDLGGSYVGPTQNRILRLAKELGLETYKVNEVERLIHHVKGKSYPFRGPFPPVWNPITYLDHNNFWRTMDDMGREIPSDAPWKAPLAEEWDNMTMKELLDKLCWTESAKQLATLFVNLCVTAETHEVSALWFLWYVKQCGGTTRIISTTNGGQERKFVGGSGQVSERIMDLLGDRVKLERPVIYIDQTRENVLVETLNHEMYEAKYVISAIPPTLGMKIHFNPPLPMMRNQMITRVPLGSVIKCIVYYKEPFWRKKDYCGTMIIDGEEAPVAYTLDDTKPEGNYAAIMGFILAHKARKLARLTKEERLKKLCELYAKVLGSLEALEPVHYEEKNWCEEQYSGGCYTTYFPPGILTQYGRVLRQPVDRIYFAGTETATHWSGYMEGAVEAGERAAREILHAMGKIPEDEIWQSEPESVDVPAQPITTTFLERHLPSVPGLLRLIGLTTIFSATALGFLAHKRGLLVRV

Homo sapiens = organism: Homo sapiens; assay: Selectivity index, ratio of IC50 for human recombinant MAOA to IC50 for human recombinant MAOB
[3] = molecular target: T2, Amine oxidase [flavin-containing] B; assay: Inhibition of human recombinant MAOB expressed in BTI cells; format: cell-based

SMILES	inhibition (INH) [1]	IC50 [2]	Ratio IC50 (Homo sapiens)	IC50 [3] [pM]
COc1ccccc1-c1cc2cc(C)ccc2oc1=O	Not Active	Not Active	–	–
COc1ccc(-c2cc3cc(C)ccc3oc2=O)cc1	Not Active	–	> 7660	–
COc1cccc(-c2cc3cc(C)ccc3oc2=O)c1	Not Active	–	> 125000	803
Cc1ccc2oc(=O)c(-c3ccc(O)cc3)cc2c1	Not Active	–	–	–
